In brackets after ≈: the same amount, converted by molar mass. Where a name gives a salt, the structure may show the parent alone.
Tests used:
[1] = system: Mycobacterium tuberculosis; experiment: Antimycobacterial activity against Mycobacterium tuberculosis H37Rv after 45 days; assay type: functional
[2] = Cytotoxicity against HEK293T cells assessed as decrease in cell viability after 72 hrs by MTT assay; assay type: toxicity, cell-based, HEK-293T; details: human
[3] = Selectivity index, ratio of IC50 for HEK293T cells to MIC for Mycobacterium tuberculosis H37Rv; assay type: toxicity, cell-based, HEK-293T; details: human, read-out: Selectivity Index

Row | SMILES | MIC [1] [µM] | IC50 at 72 h [2] [µM] | selectivity ratio [3]
1 | CC1Oc2ccccc2C=C1/C=N/NC(=O)c1ccccc1 (centres undefined) | 6.84 (≈ 2 µg/mL) | 23.3 | –
2 | CC1Oc2ccccc2C=C1/C=N/NC(=O)c1ccncc1 (centres undefined) | 0.17 (≈ 0.0499 µg/mL) | 76.3 | 449
3 | CC1Oc2ccccc2C=C1/C=N/NC(=O)c1ccc(O)cc1 (centres undefined) | 0.64 (≈ 0.197 µg/mL) | 48.8 | 76.2
4 | O=C(N/N=C/c1c(Cl)c2ccccc2oc1=O)c1ccc(F)cc1 | 1.45 (≈ 0.5 µg/mL) | 26.2 | –
5 | CC1Oc2ccccc2C=C1/C=N/NC(=O)c1ccc(Cl)cc1 (centres undefined) | > 6.12 | – | –
6 | O=C(N/N=C/C1=Cc2ccccc2OC1c1ccccc1)c1ccc(F)cc1 (centres undefined) | 1.34 (≈ 0.499 µg/mL) | 30.9 | –
7 | CC1Oc2ccccc2C=C1/C=N/NC(=O)c1cccs1 (centres undefined) | > 6.7 | – | –
8 | O=C(N/N=C/C1=Cc2ccccc2OC1c1ccccc1)c1cccs1 (centres undefined) | > 5.54 | – | –
9 | COc1ccc(C(=O)N/N=C/C2=Cc3ccccc3OC2)cc1 | 6.48 (≈ 2 µg/mL) | 36 | –
10 | O=C(N/N=C/c1c(Cl)c2ccccc2oc1=O)c1ccc(O)cc1 | 5.83 (≈ 2 µg/mL) | 33.1 | –
11 | O=C(N/N=C/C1=Cc2ccccc2OC1c1ccccc1)c1ccc(Cl)cc1 (centres undefined) | > 5.14 | 13.2 | –
12 | COc1ccc(C(=O)N/N=C/C2=Cc3ccccc3OC2c2ccccc2)cc1 (centres undefined) | 0.13 (≈ 0.05 µg/mL) | 90.7 | 697
13 | O=C(N/N=C/c1c(Cl)c2ccccc2oc1=O)c1ccccc1 | 6.12 (≈ 2 µg/mL) | 28.6 | –
14 | COc1ccc(C(=O)N/N=C/C2=Cc3ccccc3OC2C)cc1 (centres undefined) | 6.2 (≈ 2 µg/mL) | – | –
15 | O=C(N/N=C/c1c(Cl)c2ccccc2oc1=O)c1ccncc1 | 6.1 (≈ 2 µg/mL) | 12.6 | –
16 | O=C(N/N=C/C1=Cc2ccccc2OC1)c1ccco1 | 0.74 (≈ 0.199 µg/mL) | 47.3 | 63.9
17 | CC1Oc2ccccc2C=C1/C=N/NC(=O)c1ccco1 (centres undefined) | 0.18 (≈ 0.0508 µg/mL) | 21.2 | 118
18 | Cc1nnsc1C(=O)N/N=C/C1=Cc2ccccc2OC1c1ccccc1 (centres undefined) | 0.53 (≈ 0.2 µg/mL) | 30.2 | 56.9
19 | O=C(N/N=C/C1=Cc2ccccc2OC1)c1ccc(Cl)cc1 | 6.39 (≈ 2 µg/mL) | – | –
20 | O=C(N/N=C/C1=Cc2ccccc2OC1c1ccccc1)c1ccco1 (centres undefined) | 0.15 (≈ 0.0517 µg/mL) | 11.9 | 79.4
21 | Cc1nnsc1C(=O)N/N=C/c1c(Cl)c2ccccc2oc1=O | 0.67 (≈ 0.234 µg/mL) | 30.2 | 45
22 | O=C(N/N=C/C1=Cc2ccccc2OC1)c1cccs1 | 7.03 (≈ 2 µg/mL) | 22.1 | –
23 | CC[C@@H](CO)NCCN[C@@H](CC)CO [ETHAMBUTOL HYDROCHLORIDE] | 7.64 | – | –
24 | NNC(=O)c1ccncc1 [ISONIAZID] | 1.45 (≈ 0.199 µg/mL) | – | –

Source: ChEMBL document CHEMBL3870347, “Antimycobacterial activity of novel hydrazide-hydrazone derivatives with 2H-chromene and coumarin scaffold” (Bioorg Med Chem Lett, 2017)
